Experiment: xn = mol fraction of the nth substance listed

O=S(=O)([N-]S(=O)(=O)C(F)(F)F)C(F)(F)F.[Li+] + CC[n+]1ccn(C)c1.O=S(=O)([N-]S(=O)(=O)C(F)(F)F)C(F)(F)F + O
Conditions | electrical conductivity [S/m] | viscosity [mPa·s]
283 K, 101 kPa, x1 = 0.2649, x2 = 0 | 0.62 | –
283 K, 101 kPa, x1 = 0.2649, x2 = 0.2649 | 0.37 | 90.3
283 K, 101 kPa, x1 = 0.4189, x2 = 0.2649 | 0.049 | –
293 K, 101 kPa, x1 = 0.2649, x2 = 0 | 0.89 | 69.2
293 K, 101 kPa, x1 = 0.2649, x2 = 0.2649 | 0.56 | 55
293 K, 101 kPa, x1 = 0.4189, x2 = 0.2649 | 0.093 | 407
293.15 K, 100 kPa, x1 = 0.2745, x2 = 0.3509 | – | 55.7
293.15 K, 100 kPa, x1 = 0.3106, x2 = 0.3509 | – | 71.5
293.15 K, 100 kPa, x1 = 0.3509, x2 = 0.3509 | – | 111
293.15 K, 100 kPa, x1 = 0.3868, x2 = 0.3509 | – | 157
293.15 K, 100 kPa, x1 = 0.4189, x2 = 0.3509 | – | 220
293.15 K, 100 kPa, x1 = 0.4478, x2 = 0.3509 | – | 312
293.15 K, 100 kPa, x1 = 0.474, x2 = 0.3509 | – | 470
293.15 K, 100 kPa, x1 = 0.4978, x2 = 0.3509 | – | 715
298.1 K, 101 kPa, x1 = 0.2649, x2 = 0 | 1.04 | 55.3
298.1 K, 101 kPa, x1 = 0.2649, x2 = 0.2649 | 0.67 | 44.2
298.1 K, 101 kPa, x1 = 0.4189, x2 = 0.2649 | 0.12 | 293
298.15 K, 100 kPa, x1 = 0.2745, x2 = 0.3509 | – | 43.1
298.15 K, 100 kPa, x1 = 0.3106, x2 = 0.3509 | – | 55.3
298.15 K, 100 kPa, x1 = 0.3509, x2 = 0.3509 | – | 86.4
298.15 K, 100 kPa, x1 = 0.3868, x2 = 0.3509 | – | 120
298.15 K, 100 kPa, x1 = 0.4189, x2 = 0.3509 | – | 164
298.15 K, 100 kPa, x1 = 0.4478, x2 = 0.3509 | – | 227
298.15 K, 100 kPa, x1 = 0.474, x2 = 0.3509 | – | 336
298.15 K, 100 kPa, x1 = 0.4978, x2 = 0.3509 | – | 497
303 K, 101 kPa, x1 = 0.2649, x2 = 0 | 1.22 | 45.4
303 K, 101 kPa, x1 = 0.2649, x2 = 0.2649 | 0.8 | 36
303 K, 101 kPa, x1 = 0.4189, x2 = 0.2649 | 0.16 | 216
303.15 K, 100 kPa, x1 = 0.2745, x2 = 0.3509 | – | 34.6
303.15 K, 100 kPa, x1 = 0.3106, x2 = 0.3509 | – | 44.4
303.15 K, 100 kPa, x1 = 0.3509, x2 = 0.3509 | – | 62.3
303.15 K, 100 kPa, x1 = 0.3868, x2 = 0.3509 | – | 92.4
303.15 K, 100 kPa, x1 = 0.4189, x2 = 0.3509 | – | 126
303.15 K, 100 kPa, x1 = 0.4478, x2 = 0.3509 | – | 171
303.15 K, 100 kPa, x1 = 0.474, x2 = 0.3509 | – | 245
303.15 K, 100 kPa, x1 = 0.4978, x2 = 0.3509 | – | 356
313 K, 101 kPa, x1 = 0.2649, x2 = 0 | 1.6 | 30.9
313 K, 101 kPa, x1 = 0.2649, x2 = 0.2649 | 1.1 | 24.9
313 K, 101 kPa, x1 = 0.4189, x2 = 0.2649 | 0.25 | 125
313.15 K, 100 kPa, x1 = 0.2745, x2 = 0.3509 | – | 23.4
313.15 K, 100 kPa, x1 = 0.3106, x2 = 0.3509 | – | 30.1
313.15 K, 100 kPa, x1 = 0.3509, x2 = 0.3509 | – | 41.2
313.15 K, 100 kPa, x1 = 0.3868, x2 = 0.3509 | – | 57.6
313.15 K, 100 kPa, x1 = 0.4189, x2 = 0.3509 | – | 78.2
313.15 K, 100 kPa, x1 = 0.4478, x2 = 0.3509 | – | 102
313.15 K, 100 kPa, x1 = 0.474, x2 = 0.3509 | – | 142
313.15 K, 100 kPa, x1 = 0.4978, x2 = 0.3509 | – | 197
323 K, 101 kPa, x1 = 0.2649, x2 = 0 | 2.04 | 21.8
323 K, 101 kPa, x1 = 0.2649, x2 = 0.2649 | 1.45 | 18.2
323 K, 101 kPa, x1 = 0.4189, x2 = 0.2649 | 0.38 | 78.5
323.15 K, 100 kPa, x1 = 0.2745, x2 = 0.3509 | – | 16.7
323.15 K, 100 kPa, x1 = 0.3106, x2 = 0.3509 | – | 21.4
323.15 K, 100 kPa, x1 = 0.3509, x2 = 0.3509 | – | 29
323.15 K, 100 kPa, x1 = 0.3868, x2 = 0.3509 | – | 39
323.15 K, 100 kPa, x1 = 0.4189, x2 = 0.3509 | – | 50.9
323.15 K, 100 kPa, x1 = 0.4478, x2 = 0.3509 | – | 61.3
323.15 K, 100 kPa, x1 = 0.474, x2 = 0.3509 | – | 89.2
323.15 K, 100 kPa, x1 = 0.4978, x2 = 0.3509 | – | 120
333 K, 101 kPa, x1 = 0.2649, x2 = 0 | 2.58 | 16.2
333 K, 101 kPa, x1 = 0.2649, x2 = 0.2649 | 1.83 | 13.8
333 K, 101 kPa, x1 = 0.4189, x2 = 0.2649 | 0.53 | 51.9
333.15 K, 100 kPa, x1 = 0.2745, x2 = 0.3509 | – | 12.4
333.15 K, 100 kPa, x1 = 0.3106, x2 = 0.3509 | – | 15.9
333.15 K, 100 kPa, x1 = 0.3509, x2 = 0.3509 | – | 20.1
333.15 K, 100 kPa, x1 = 0.3868, x2 = 0.3509 | – | 26.2
333.15 K, 100 kPa, x1 = 0.4189, x2 = 0.3509 | – | 34.2
333.15 K, 100 kPa, x1 = 0.4478, x2 = 0.3509 | – | 41.8
333.15 K, 100 kPa, x1 = 0.474, x2 = 0.3509 | – | 53.7
333.15 K, 100 kPa, x1 = 0.4978, x2 = 0.3509 | – | 78.1
343.15 K, 100 kPa, x1 = 0.2745, x2 = 0.3509 | – | 9.49
343.15 K, 100 kPa, x1 = 0.3106, x2 = 0.3509 | – | 12.2
343.15 K, 100 kPa, x1 = 0.3509, x2 = 0.3509 | – | 15.2
343.15 K, 100 kPa, x1 = 0.3868, x2 = 0.3509 | – | 19.1
343.15 K, 100 kPa, x1 = 0.4189, x2 = 0.3509 | – | 24.5
343.15 K, 100 kPa, x1 = 0.4478, x2 = 0.3509 | – | 29.6
343.15 K, 100 kPa, x1 = 0.474, x2 = 0.3509 | – | 37.2
343.15 K, 100 kPa, x1 = 0.4978, x2 = 0.3509 | – | 49.7
353.15 K, 100 kPa, x1 = 0.2745, x2 = 0.3509 | – | 7.49
353.15 K, 100 kPa, x1 = 0.3106, x2 = 0.3509 | – | 9.62
353.15 K, 100 kPa, x1 = 0.3509, x2 = 0.3509 | – | 11.8
353.15 K, 100 kPa, x1 = 0.3868, x2 = 0.3509 | – | 14.5
353.15 K, 100 kPa, x1 = 0.4189, x2 = 0.3509 | – | 18.4
353.15 K, 100 kPa, x1 = 0.4478, x2 = 0.3509 | – | 21.9
353.15 K, 100 kPa, x1 = 0.474, x2 = 0.3509 | – | 27
353.15 K, 100 kPa, x1 = 0.4978, x2 = 0.3509 | – | 35
363.15 K, 100 kPa, x1 = 0.2745, x2 = 0.3509 | – | 6.01
363.15 K, 100 kPa, x1 = 0.3106, x2 = 0.3509 | – | 7.72
363.15 K, 100 kPa, x1 = 0.3509, x2 = 0.3509 | – | 9.69
363.15 K, 100 kPa, x1 = 0.3868, x2 = 0.3509 | – | 11.3
363.15 K, 100 kPa, x1 = 0.4189, x2 = 0.3509 | – | 14.2
363.15 K, 100 kPa, x1 = 0.4478, x2 = 0.3509 | – | 16.6
363.15 K, 100 kPa, x1 = 0.474, x2 = 0.3509 | – | 20.3
363.15 K, 100 kPa, x1 = 0.4978, x2 = 0.3509 | – | 25.7

O=S(=O)([N-]S(=O)(=O)C(F)(F)F)C(F)(F)F.[Li+] + CC[n+]1ccn(C)c1.O=S(=O)([O-])C(F)(F)F
electrical conductivity [S/m], 101 kPa
Conditions | x1 = 0.007746 | x1 = 0.01537 | x2 = 0.9697 | x2 = 0.9746
288.15 K | 0.587 | 0.557 | – | 0.538
298.15 K | 0.844 | 0.823 | 0.778 | 0.785
333.15 K | 2.14 | 2.13 | 2.04 | 2.04

OCCO + CC[n+]1ccn(C)c1.O=S(=O)([O-])C(F)(F)F
100 kPa, x1 = 1
Conditions | viscosity [mPa·s]
308.15 K | 11.16
318.15 K | 7.91
